A short description of this series: r1 relaxivity of dt-Gd(III) nanoconjugates, Bruker minispec 60 MHz. The series is classed as physicochemical. As to conditions: per Gd(III); 60 MHz (1.41 T), 37° C., water plus 0.01% tween 20. Here is the method: A stock solution of backfilled dt-Gd(III) SNA conjugates was made (700 uL). This stock was serially diluted four times for a total of five solutions. Solutions were heated to 37° C. and two hundred μL of each concentration was placed into a Bruker minispec mq60 NMR spectrometer (60 MHz) for measurement of T1 relaxation time. Data were collected using an inversion recovery pulse sequence using 4 averages, a 15 s repetition time and 10 data points. The remaining volumes of each solution were utilized for ICP analysis of [Gd(III)]. The inverse of the longitudinal relaxation time (1/T1, s−1) was plotted versus the Gd(III) concentration (mM). […] Relaxivities of DNA-Gd@spheres, Gd(III)-DNA and complex 5 were collected by the analogous procedure (Table 3, FIG. 7).

“2,2′2″(10(3-(((1-(5-(1,2-dithiolan-3-yl)pentyl)-1,2,3-triazol-4-yl)methyl)amino)-3-oxopropyl)-1,4,7,10-tetraazacyclododecyl-gadolinium(III) complex [dt-Gd(III)]”: the r1 relaxivity ionic came to 4.9 mM⁻¹ s⁻¹.

The record behind these values is US10786582B2, “Gd(III)-dithiolane gold nanoparticle conjugates” (Northwestern University, priority 2015, dated 2020).
